Target: BRAF V600E (Homo sapiens, UniProt P15056, V600E)
Assay: HiBiT cellular BRAF^V600E degradation assay
Type: cell-based
Conditions: A375.10 cells, 24 h; for DC50: concentration at which 50% of total cellular BRAF^V600E is degraded; for Emax: residual protein remaining in the cell, read-out: HiBit 24 h Emax

BRAF V600E, sequence (P15056 whole entry V600E): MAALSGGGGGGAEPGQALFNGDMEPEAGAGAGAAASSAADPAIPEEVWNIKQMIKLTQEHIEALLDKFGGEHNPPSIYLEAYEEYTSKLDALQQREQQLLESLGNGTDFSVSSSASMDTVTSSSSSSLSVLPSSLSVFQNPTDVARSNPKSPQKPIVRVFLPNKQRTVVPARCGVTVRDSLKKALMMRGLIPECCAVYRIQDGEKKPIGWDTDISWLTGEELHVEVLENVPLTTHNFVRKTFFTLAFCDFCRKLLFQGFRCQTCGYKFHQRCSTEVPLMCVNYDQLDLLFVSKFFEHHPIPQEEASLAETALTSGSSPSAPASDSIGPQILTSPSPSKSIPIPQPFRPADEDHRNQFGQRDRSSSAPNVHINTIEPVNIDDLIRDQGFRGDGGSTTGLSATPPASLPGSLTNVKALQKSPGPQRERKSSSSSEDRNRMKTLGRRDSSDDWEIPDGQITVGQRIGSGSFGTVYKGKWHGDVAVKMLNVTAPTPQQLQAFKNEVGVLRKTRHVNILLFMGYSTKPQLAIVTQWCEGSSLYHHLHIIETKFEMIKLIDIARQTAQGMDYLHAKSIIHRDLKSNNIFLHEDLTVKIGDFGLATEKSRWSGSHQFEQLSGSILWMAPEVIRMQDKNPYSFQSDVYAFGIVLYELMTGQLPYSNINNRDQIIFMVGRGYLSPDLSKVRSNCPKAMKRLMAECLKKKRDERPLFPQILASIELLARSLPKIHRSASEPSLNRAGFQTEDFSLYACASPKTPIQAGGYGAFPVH

Row | SMILES | DC50 [µM] | Emax [%]
1 | CCN(C)S(=O)(=O)Nc1ccc(F)c(Oc2ccc3ncn(C4CC5(CCN(C(=O)CC6(O)CCN(c7ccc(NC8CCC(=O)NC8=O)cc7F)CC6)CC5)C4)c(=O)c3c2)c1C#N (centres unmarked) [Example 23, 6-[2-cyano-3-[[ethyl(methyl)sulfamoyl]amino]-6-fluorophenoxy]-3-[7-[2-[1-[4-[(2,6-dioxopiperidin-3-yl)amino]-2-fluorophenyl]-4-hydroxypiperidin-4-yl]acetyl]-7-azaspiro [3.5]nonan-2-yl]-4-oxoquinazoline] | 0.0193 | 21.7
2 | CCN(C)S(=O)(=O)Nc1ccc(F)c(Oc2ccc3ncn(C4COC5(CCN(C(=O)CN6CCC(c7ccc(NC8CCC(=O)NC8=O)cc7F)CC6)CC5)C4)c(=O)c3c2)c1C#N (centres unmarked) [Example 24, 3-[6-[2-cyano-3-[[ethyl(methyl)sulfamoyl]amino]-6-fluorophenoxy]-4-oxoquinazolin-3-yl]-8-[2-[4-[4-[(2,6-dioxopiperidin-3-yl)amino]-2-fluorophenyl]piperidin-1-yl]acetyl]-1-oxa-8-azaspiro[4.5]decane] | 0.0195 | 10.8
3 | CCN(C)S(=O)(=O)Nc1ccc(F)c(Oc2ccc3ncn(C4C5CN(C(=O)CN6CCC(c7ccc(NC8CCC(=O)NC8=O)cc7F)CC6)CC54)c(=O)c3c2)c1C#N (centres unmarked) [Example 25, 6-[2-cyano-3-[[ethyl(methyl)sulfamoyl]amino]-6-fluorophenoxy]-3-[3-[2-[4-[4-[(2,6-dioxopiperidin-3-yl)amino]-2-fluorophenyl]piperidin-1-yl]acetyl]-3-azabicyclo[3.1.0]hexan-6-yl]-4-oxoquinazoline] | 0.0348 | 11.9
4 | CCN(C)S(=O)(=O)Nc1cccc(Oc2ccc3ncn(C4CC5(CCN(C(=O)CN6CCC(c7ccc(NC8CCC(=O)NC8=O)cc7F)CC6)CC5)C4)c(=O)c3c2)c1C#N (centres unmarked) [Example 26, 6-[2-cyano-3-[[ethyl(methyl)sulfamoyl]amino]phenoxy]-3-[7-[2-[4-[4-[(2,6-dioxopiperidin-3-yl)amino]-2-fluorophenyl]piperidin-1-yl]acetyl]-7-azaspiro[3.5]nonan-2-yl]-4-oxoquinazoline] | 0.00849 | 10
5 | CCN(C)S(=O)(=O)Nc1ccc(F)c(Oc2ccc3ncn(C4COC5(CCN(C(=O)CC6(O)CCN(c7ccc(NC8CCC(=O)NC8=O)cc7F)CC6)CC5)C4)c(=O)c3c2)c1C#N (centres unmarked) [Example 27, 3-[6-[2-cyano-3-[[ethyl(methyl)sulfamoyl]amino]-6-fluorophenoxy]-4-oxoquinazolin-3-yl]-8-[2-[1-[4-[(2,6-dioxopiperidin-3-yl)amino]-2-fluorophenyl]-4-hydroxypiperidin-4-yl]acetyl]-1-oxa-8-azaspiro[4.5]decane] | 0.015 | 22.2
6 | CCN(C)S(=O)(=O)Nc1ccc(F)c(Oc2ccc3ncn(C4CCC5(CCN(C(=O)CN6CCC(c7ccc(NC8CCC(=O)NC8=O)cc7F)CC6)CC5)C4)c(=O)c3c2)c1C#N (centres unmarked) [Example 28, 6-[2-cyano-3-[[ethyl(methyl)sulfamoyl]amino]-6-fluorophenoxy]-3-[8-[2-[4-[4-[(2,6-dioxopiperidin-3-yl)amino]-2-fluorophenyl]piperidin-1-yl]acetyl]-8-azaspiro[4.5]decan-3-yl]-4-oxoquinazoline] | 0.0229 | 10.2
7 | CCN(C)S(=O)(=O)Nc1ccc(F)c(Oc2ccc3ncn(C4CCOC5(CCN(C(=O)CN6CCC(c7ccc(NC8CCC(=O)NC8=O)cc7F)CC6)CC5)C4)c(=O)c3c2)c1C#N (centres unmarked) [Example 29, 4-[6-[2-cyano-3-[[ethyl(methyl)sulfamoyl]amino]-6-fluorophenoxy]-4-oxoquinazolin-3-yl]-9-[2-[4-[4-[(2,6-dioxopiperidin-3-yl)amino]-2-fluorophenyl]piperidin-1-yl]acetyl]-1-oxa-9-azaspiro[5.5]undecane] | 0.0337 | 12.1

Source: US12486253B2, “Therapeutics for the degradation of mutant BRAF” (C4 THERAPEUTICS, INC., priority 2021, dated 2025)
